Values quoted from earlier work in paper PMC6594753, “Cystic fibrosis drug ivacaftor stimulates CFTR channels at picomolar concentrations” (eLife, 2019).

System: CFTR
Design: method as in Yeh et al., 2019
Settings: ref Yeh et al., 2019; cited from earlier work

Question: Which “Hill coefficients of dose response curves for activation” value does the source give for `CC1(C)Cc2c(sc(NC(=O)c3ccn[nH]3)c2C(N)=O)C(C)(C)O1` [GLPG-1837] here?
Answer: close to unity
